Results published in patent US10336732B2, “1-heterocyclyl isochromanyl compounds and analogs for treating CNS disorders” (Sunovion Pharmaceuticals Inc., priority 2015, dated 2019).

The molecules below were run on mice (assay: Neuropharmacological assay (SmartCube), behavioral signature of compound-treated mice). Conditions: i.p. 15 min before behavioral test, most efficacious dose(s) of 3 doses.
Type: in vivo
From the text: Neurosci. […] As reported in Roberds, because psychiatric diseases generally result from disorders of cell-cell communication or circuitry, intact systems are useful in detecting improvement in disease-relevant endpoints. These endpoints are typically behavioral in nature, often requiring human observation and interpretation. To facilitate testing of multiple compounds for behavioral effects relevant to psychiatric disease, PsychoGenics, Inc. (Tarrytown, N.Y., “PGI”) developed SmartCube™, an automated system in which behaviors of compound-treated mice are captured by digital video and analyzed with computer algorithms. […] PGI Analytical Systems uses data from SmartCube™ to compare the behavioral signature of a test compound to a database of behavioral signatures obtained using a large set of diverse reference compounds. (The composition of the database as well as validation of the method is further described in Roberds). In this way, the neuropharmacological effects of a test compound can be predicted by similarity to major classes of compounds, such as antipsychotics, anxiolytics and antidepressants.
The SmartCube™ system produces an activity signature indicating the probability that the activity of the test compound at the administered dose matches a given class of neuropharmacological agents. (See, e.g., Roberds, FIGS. 2 and 3). The test compound is simultaneously compared against multiple classes of agents; thus, a separate probability is generated for each behavioral effect measured (e.g., anxiolytic activity, analgesic activity, etc.). In Table 4, these probabilities are reported for each behavioral effect measured as follows:
Provided compounds were dissolved in a mixture of Pharmasolve™ (N-methyl-2-pyrrolidone), polyethylene glycol and propylene glycol, and were injected i.p. 15 min. before the behavioral test. For each compound, injections were administered at 3 different doses. For each behavioral effect measured, results for the most efficacious dose(s) are presented.

Row | Structure (SMILES) | AD: ADHD (probability that behavioral signature matches class) | AG: analgesic (probability that behavioral signature matches class) | AX: anxiolytic (probability that behavioral signature matches class) | CE: cognitive enhancer (probability that behavioral signature matches class) | DP: anti-depressant (probability that behavioral signature matches class) | HA: hallucinogen (probability that behavioral signature matches class) | MS: mood stabilizer (probability that behavioral signature matches class) | PS: anti-psychotic (probability that behavioral signature matches class) | SD: sedative hypnotic (probability that behavioral signature matches class) | UN: uncharacterized CNS activity (probability that behavioral signature matches class)
1 | Fc1ccc2c(c1)[C@@H](F)CO[C@H]2[C@@H]1CCCN1 [Compound I-138, (S)-2-((1R,4R)-4,6-difluoroisochroman-1-yl)pyrrolidine] | + (LOQ ≤ + <5%) | + (LOQ ≤ + <5%) | ++ (5% ≤ ++ <25%) | + (LOQ ≤ + <5%) | ++ (5% ≤ ++ <25%) | + (LOQ ≤ + <5%) | + (LOQ ≤ + <5%) | +++ (25% ≤ +++ <50%) | + (LOQ ≤ + <5%) | ++ (5% ≤ ++ <25%)
2 | N#Cc1ccc2c(c1)CCO[C@@H]2[C@H]1CCCN1 [Compound I-46, (S)-1-((R)-pyrrolidin-2-yl)isochroman-6-carbonitrile] | + (LOQ ≤ + <5%) | ++ (5% ≤ ++ <25%) | ++ (5% ≤ ++ <25%) | ++ (5% ≤ ++ <25%) | ++ (5% ≤ ++ <25%) | + (LOQ ≤ + <5%) | + (LOQ ≤ + <5%) | ++++ (50% ≤ ++++) | ++ (5% ≤ ++ <25%) | + (LOQ ≤ + <5%)
3 | N#Cc1ccc2c(c1)CCO[C@H]2[C@H]1CCCN1 [Compound I-45, (R)-1-((R)-pyrrolidin-2-yl)isochroman-6-carbonitrile] | + (LOQ ≤ + <5%) | ++ (5% ≤ ++ <25%) | +++ (25% ≤ +++ <50%) | + (LOQ ≤ + <5%) | ++ (5% ≤ ++ <25%) | + (LOQ ≤ + <5%) | + (LOQ ≤ + <5%) | + (LOQ ≤ + <5%) | + (LOQ ≤ + <5%) | + (LOQ ≤ + <5%)
4 | CC1(C)CN[C@H]([C@H]2OCCc3ccccc32)C1 [Compound I-60, (S)-2-((S)-isochroman-1-yl)-4,4-dimethylpyrrolidine] | + (LOQ ≤ + <5%) | ++ (5% ≤ ++ <25%) | ++ (5% ≤ ++ <25%) | ++ (5% ≤ ++ <25%) | ++ (5% ≤ ++ <25%) | + (LOQ ≤ + <5%) | + (LOQ ≤ + <5%) | +++ (25% ≤ +++ <50%) | ++ (5% ≤ ++ <25%) | ++ (5% ≤ ++ <25%)
5 | c1cc2c(c3c1CCO[C@H]3[C@@H]1CCCN1)OCO2 [Compound I-52, (S)-2-((R)-7,9-dihydro-6H-[1,3]dioxolo[4,5-h]isochromen-9-yl)pyrrolidine] | + (LOQ ≤ + <5%) | ++ (5% ≤ ++ <25%) | ++++ (50% ≤ ++++) | ++ (5% ≤ ++ <25%) | ++ (5% ≤ ++ <25%) | + (LOQ ≤ + <5%) | + (LOQ ≤ + <5%) | ++ (5% ≤ ++ <25%) | + (LOQ ≤ + <5%) | +++ (25% ≤ +++ <50%)
6 | Cc1cccc2c1[C@@H]([C@@H]1CCCN1)OCC2 [Compound I-21, (S)-2-((S)-8-methylisochroman-1-yl)pyrrolidine] | + (LOQ ≤ + <5%) | ++ (5% ≤ ++ <25%) | ++ (5% ≤ ++ <25%) | + (LOQ ≤ + <5%) | ++ (5% ≤ ++ <25%) | + (LOQ ≤ + <5%) | + (LOQ ≤ + <5%) | ++ (5% ≤ ++ <25%) | + (LOQ ≤ + <5%) | +++ (25% ≤ +++ <50%)
7 | Clc1ccc2c(c1)CCO[C@H]2[C@@H]1CCCN1 [Compound I-34, (S)-2-((R)-6-chloroisochroman-1-yl)pyrrolidine] | + (LOQ ≤ + <5%) | ++ (5% ≤ ++ <25%) | ++ (5% ≤ ++ <25%) | ++ (5% ≤ ++ <25%) | ++ (5% ≤ ++ <25%) | + (LOQ ≤ + <5%) | + (LOQ ≤ + <5%) | ++ (5% ≤ ++ <25%) | ++ (5% ≤ ++ <25%) | +++ (25% ≤ +++ <50%)
8 | Fc1ccc2c(c1)[C@@H]([C@H]1CCCN1)OCC2 [Compound I-8, (R)-2-((S)-7-fluoroisochroman-1-yl)pyrrolidine] | + (LOQ ≤ + <5%) | + (LOQ ≤ + <5%) | ++ (5% ≤ ++ <25%) | ++ (5% ≤ ++ <25%) | +++ (25% ≤ +++ <50%) | + (LOQ ≤ + <5%) | + (LOQ ≤ + <5%) | +++ (25% ≤ +++ <50%) | ++ (5% ≤ ++ <25%) | ++ (5% ≤ ++ <25%)

Same assay, conditions: i.p. 15 min before behavioral test, most efficacious dose(s) of 3 doses

Row | Structure (SMILES) | XG: anxiogenic (probability that behavioral signature matches class)
9 | Fc1ccc2c(c1)[C@@H](F)CO[C@H]2[C@@H]1CCCN1 [Compound I-138, (S)-2-((1R,4R)-4,6-difluoroisochroman-1-yl)pyrrolidine] | + (LOQ ≤ + <5%)
10 | N#Cc1ccc2c(c1)CCO[C@@H]2[C@H]1CCCN1 [Compound I-46, (S)-1-((R)-pyrrolidin-2-yl)isochroman-6-carbonitrile] | + (LOQ ≤ + <5%)
11 | N#Cc1ccc2c(c1)CCO[C@H]2[C@H]1CCCN1 [Compound I-45, (R)-1-((R)-pyrrolidin-2-yl)isochroman-6-carbonitrile] | + (LOQ ≤ + <5%)
12 | CC1(C)CN[C@H]([C@H]2OCCc3ccccc32)C1 [Compound I-60, (S)-2-((S)-isochroman-1-yl)-4,4-dimethylpyrrolidine] | + (LOQ ≤ + <5%)
13 | c1cc2c(c3c1CCO[C@H]3[C@@H]1CCCN1)OCO2 [Compound I-52, (S)-2-((R)-7,9-dihydro-6H-[1,3]dioxolo[4,5-h]isochromen-9-yl)pyrrolidine] | + (LOQ ≤ + <5%)
14 | Cc1cccc2c1[C@@H]([C@@H]1CCCN1)OCC2 [Compound I-21, (S)-2-((S)-8-methylisochroman-1-yl)pyrrolidine] | + (LOQ ≤ + <5%)
15 | Clc1ccc2c(c1)CCO[C@H]2[C@@H]1CCCN1 [Compound I-34, (S)-2-((R)-6-chloroisochroman-1-yl)pyrrolidine] | + (LOQ ≤ + <5%)
16 | Fc1ccc2c(c1)[C@@H]([C@H]1CCCN1)OCC2 [Compound I-8, (R)-2-((S)-7-fluoroisochroman-1-yl)pyrrolidine] | + (LOQ ≤ + <5%)
